Measurements published in patent publication US20260297109A1, “COMPOUNDS AS SUMO ACTIVATING ENZYME INHIBITORS” (WIGEN BIOMEDICINE TECHNOLOGY (SHANGHAI) CO., LTD., priority 2022, published 2026).

These compounds were tested against T1, SAE (Homo sapiens, UniProt Q9UBT2) (assay: SUMO IF: in vitro inhibitory activity assay against SAE in HCT116 cells (SUMO-2/3 immunofluorescence)). Conditions: class symbols, 6 h at 37° C.
T1 construct: endogenous in cells; host or cells: HCT116
T1 sequence (Q9UBT2 1-640): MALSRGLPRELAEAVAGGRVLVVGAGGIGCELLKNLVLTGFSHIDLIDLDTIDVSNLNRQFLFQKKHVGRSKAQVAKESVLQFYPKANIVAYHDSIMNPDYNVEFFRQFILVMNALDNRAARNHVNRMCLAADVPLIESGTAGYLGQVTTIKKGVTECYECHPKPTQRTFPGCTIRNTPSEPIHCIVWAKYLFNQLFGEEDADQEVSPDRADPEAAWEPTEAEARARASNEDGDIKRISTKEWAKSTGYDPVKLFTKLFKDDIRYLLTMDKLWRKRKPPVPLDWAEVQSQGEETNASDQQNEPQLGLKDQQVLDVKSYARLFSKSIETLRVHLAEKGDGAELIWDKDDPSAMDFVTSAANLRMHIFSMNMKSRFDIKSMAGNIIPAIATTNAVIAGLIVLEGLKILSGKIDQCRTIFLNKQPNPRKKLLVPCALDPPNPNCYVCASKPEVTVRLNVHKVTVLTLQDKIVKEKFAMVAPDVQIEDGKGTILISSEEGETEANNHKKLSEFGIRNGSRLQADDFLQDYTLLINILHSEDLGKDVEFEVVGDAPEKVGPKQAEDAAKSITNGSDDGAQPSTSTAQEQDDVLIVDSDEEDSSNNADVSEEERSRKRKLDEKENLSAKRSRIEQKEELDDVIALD
T1 sequence (Q9UBE0 1-346): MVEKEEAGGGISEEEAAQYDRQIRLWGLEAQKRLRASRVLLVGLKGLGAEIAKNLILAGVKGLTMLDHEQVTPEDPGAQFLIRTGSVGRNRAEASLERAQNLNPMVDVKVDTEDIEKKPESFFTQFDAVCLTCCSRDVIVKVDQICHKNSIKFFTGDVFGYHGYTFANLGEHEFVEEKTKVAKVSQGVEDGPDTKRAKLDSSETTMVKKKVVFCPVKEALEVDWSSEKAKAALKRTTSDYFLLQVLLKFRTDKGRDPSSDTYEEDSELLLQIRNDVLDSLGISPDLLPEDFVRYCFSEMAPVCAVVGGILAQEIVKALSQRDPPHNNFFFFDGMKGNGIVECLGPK
Type: cell-based
Method in brief: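 HCT116 cells were treated with compound for 6 h at 37 °C, then PFA-fixed, Triton-permeabilised and BSA-blocked. They were stained overnight at 4 °C with anti-SUMO-2/3 (18H8) rabbit mAb (1:400), then with FITC anti-rabbit IgG (1:300). Fluorescence versus DMSO gave inhibition rate and IC50.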

`NS(=O)(=O)OC[C@H]1[C@H](F)[C@@H](Nc2ncncc2C(=O)c2cc3c(s2)CCC[C@@]32NCCc3ccc(Cl)nc32)C[C@@H]1O` [Compound 601] and `NS(=O)(=O)OC[C@H]1[C@H](F)[C@@H](Nc2ncncc2C(=O)c2cc3c(s2)CCC[C@@]32NCCc3ncc(Cl)cc32)C[C@@H]1O` [Compound 604] cannot be ordered by IC50: greater than 200 nM for the first, greater than 200 nM for the second.

First: Cc1sc(C(=O)c2cncnc2N[C@H]2C[C@H](O)[C@@H](COS(N)(=O)=O)[C@@H]2F)cc1[C@@H]1OCCc2ccc(Cl)cc21 [Compound 988]
Second: Cc1sc(C(=O)c2cncnc2N[C@H]2C[C@H](O)[C@@H](CCS(N)(=O)=O)[C@@H]2F)cc1C1NCCc2ccc(Cl)cc21 (stereo partly shown) [Compound 990]
The IC50 of the first is lower: 50 to 200 nM for the first, greater than 200 nM for the second.

Compared with `Cc1sc(C(=O)c2cncnc2N[C@H]2C[C@H](O)[C@@H](CCS(N)(=O)=O)[C@@H]2F)cc1[C@H]1NCCc2ccc(Cl)cc21` [Compound 992], `NS(=O)(=O)OC[C@H]1[C@H](F)[C@@H](Nc2ncncc2C(=O)c2cc3c(s2)OCC[C@]32NCCc3ccc(Cl)cc32)C[C@@H]1O` [Compound 682] is lower in IC50: greater than 200 nM for the first, 50 to 200 nM for the second.

`NS(=O)(=O)OC[C@H]1[C@H](F)[C@@H](Nc2ncncc2C(=O)c2cc3c(s2)CCCC32OCCc3ccc(Cl)cc32)C[C@@H]1O` (stereo partly shown) [Compound 126] and `CCN1Cc2sc(C(=O)c3cncnc3N[C@H]3C[C@H](O)[C@@H](COS(N)(=O)=O)[C@@H]3F)cc2C2(C1)OCCc1ccc(Cl)cc12` (stereo partly shown) [Compound 729] cannot be ordered by IC50: no more than 50 nM for the first, no more than 50 nM for the second.

`NS(=O)(=O)OC[C@H]1[C@H](F)[C@@H](Nc2ncncc2C(=O)c2cc3c(s2)C(F)=CC32NCCc3ccc(Cl)cc32)C[C@@H]1O` (stereo partly shown) [Compound 321] and `NS(=O)(=O)OC[C@H]1[C@H](F)[C@@H](Nc2ncncc2C(=O)c2cc3c(s2)OC[C@]32NCCc3ccc(F)cc32)C[C@@H]1O` [Compound 144] cannot be ordered by IC50: no more than 50 nM for the first, 50 to 200 nM for the second.

`CC1(C)CNC2(CCCc3sc(C(=O)c4cncnc4N[C@H]4C[C@H](O)[C@@H](COS(N)(=O)=O)[C@@H]4F)cc32)c2cc(Cl)ccc21` (stereo partly shown) [Compound 1026] and `CC1(C)Cc2ccc(Cl)cc2C2(CCCc3sc(C(=O)c4cncnc4N[C@H]4C[C@H](O)[C@@H](COS(N)(=O)=O)[C@@H]4F)cc32)N1` (stereo partly shown) [Compound 1029] fall in the same range of IC50: 50 to 200 nM for the first, 50 to 200 nM for the second.

`NS(=O)(=O)OC[C@H]1[C@H](F)[C@@H](Nc2ncncc2C(=O)c2cc3c(s2)OC[C@@]32NCCc3ccccc32)C[C@@H]1O` [Compound 140] and `COc1ccc2c(c1)[C@]1(CCCc3sc(C(=O)c4cncnc4N[C@H]4C[C@H](O)[C@@H](COS(N)(=O)=O)[C@@H]4F)cc31)NCC2` [Compound 643] cannot be ordered by IC50: greater than 200 nM for the first, greater than 200 nM for the second.

First: NS(=O)(=O)OC[C@H]1[C@H](F)[C@@H](Nc2ncncc2C(=O)c2cc3c(s2)CCC32NC3(CC3)Cc3ccc(Cl)cc32)C[C@@H]1O (stereo partly shown) [Compound 166]
Second: COc1ccc2c(c1)[C@@]1(CCCc3sc(C(=O)c4cncnc4N[C@H]4C[C@H](O)[C@@H](COS(N)(=O)=O)[C@@H]4F)cc31)NCC2 [Compound 644]
The IC50 of the first is lower: 50 to 200 nM for the first, greater than 200 nM for the second. The first is the more potent here.

`NS(=O)(=O)OC[C@H]1[C@H](F)[C@@H](Nc2ncncc2C(=O)c2nc3c(s2)CSC[C@]32NCCc3ccc(Cl)cc32)C[C@@H]1O` [Compound 593] and `CC1Cc2ccc(Cl)cc2C2(C=Cc3sc(C(=O)c4cncnc4N[C@H]4C[C@H](O)[C@@H](COS(N)(=O)=O)[C@@H]4F)cc32)N1` (stereo partly shown) [Compound 1056] fall in the same range of IC50: 50 to 200 nM for the first, 50 to 200 nM for the second.

First: NS(=O)(=O)OC[C@H]1[C@H](F)[C@@H](Nc2ncncc2C(=O)c2cc3c(s2)C=C[C@@]32OCCc3ccc(F)cc32)C[C@@H]1O [Compound 757]
Second: CC(C)N1Cc2sc(C(=O)c3cncnc3N[C@H]3C[C@H](O)[C@@H](COS(N)(=O)=O)[C@@H]3F)cc2C2(C1)OCCc1ccc(F)cc12 (stereo partly shown) [Compound 732]
The IC50 of the first is higher: greater than 200 nM for the first, 50 to 200 nM for the second.

Same assay, conditions: numeric values, 6 h at 37° C.

`NS(=O)(=O)OC[C@H]1[C@H](F)[C@@H](Nc2ncncc2C(=O)c2cc3c(s2)CN(C2CC2)C[C@@]32NCCc3ccc(Cl)cc32)C[C@@H]1O` [Compound 580] and `Cc1sc(C(=O)c2cncnc2N[C@H]2C[C@H](O)[C@@H](COS(N)(=O)=O)[C@@H]2F)cc1[C@H]1NCCc2ccc(F)cc21` [Compound 237] cannot be ordered by IC50: greater than 1000 nM for the first, greater than 1000 nM for the second.
